{"source": "patent US9499572B2", "about": "“Phosphatidylalkanols and compositions thereof” (Pethmark AB, priority 2013, dated 2016)", "test": "Estimated concentration in DMSO-d6 after shaking an excess at 38° C., cooling to 22° C. and decantation (1H-NMR integrals)", "assay_type": "physicochemical", "conditions": "organic solvent or mixture, thermodynamic from solid, Composition Example 13, excess shaken at 38° C. for 15 min, cooled to 22° C., decanted, no additive, read-out: concentration in the solution (limit of solubility)", "experimental": "A mixture of PEth-16:0/18:1-NMe3 (15 mg), dimethyl sulfone (0.4 mg) and DMSO-d6 (0.75 ml) was shaken at 38° C. for 15 min. The mixture was then allowed to reach ambient temperature (22° C.) and kept at that temperature for 1 h. The solution was then separated from a glassy precipitate by decantation and transferred to an NMR-tube. The concentration of PEth-16:0/18:1-NMe3 in the solution was estimated to be about 3 mg/ml by comparison of ^1H-NMR integrals in the ^1H-NMR spectrum (FIG. 7) of signals from PEth-16:0/18:1-NMe3 with the signal of dimethyl sulfone.", "note": "Structures can show the parent of a compound that is named as a salt."}
{"smiles": "CCCCCCCC/C=C\\CCCCCCCC(=O)O[C@H](COC(=O)CCCCCCCCCCCCCCC)COP(=O)(O)OCC", "note": "[PEth-16:0/18:1-NMe3, 1-Palmitoyl-2-oleoyl-3-ethoxyhydroxyphosphinyl-sn-glycerol trimethylammonium salt]", "values": [{"measurement": "solubility at 15 min", "result": "~3000", "unit": "µg/mL"}]}
